For 30 compounds, IC50 results are on record in US7098340B2, “Benzyl sulfonamide derivatives” (Warner Lambert Company LLC, priority 2003, dated 2006).

pIC50: −log10 of the molar value.

The target in this test is T1, androgen receptor (Homo sapiens, UniProt P10275).
T1 sequence (P10275 1-920 Q868H): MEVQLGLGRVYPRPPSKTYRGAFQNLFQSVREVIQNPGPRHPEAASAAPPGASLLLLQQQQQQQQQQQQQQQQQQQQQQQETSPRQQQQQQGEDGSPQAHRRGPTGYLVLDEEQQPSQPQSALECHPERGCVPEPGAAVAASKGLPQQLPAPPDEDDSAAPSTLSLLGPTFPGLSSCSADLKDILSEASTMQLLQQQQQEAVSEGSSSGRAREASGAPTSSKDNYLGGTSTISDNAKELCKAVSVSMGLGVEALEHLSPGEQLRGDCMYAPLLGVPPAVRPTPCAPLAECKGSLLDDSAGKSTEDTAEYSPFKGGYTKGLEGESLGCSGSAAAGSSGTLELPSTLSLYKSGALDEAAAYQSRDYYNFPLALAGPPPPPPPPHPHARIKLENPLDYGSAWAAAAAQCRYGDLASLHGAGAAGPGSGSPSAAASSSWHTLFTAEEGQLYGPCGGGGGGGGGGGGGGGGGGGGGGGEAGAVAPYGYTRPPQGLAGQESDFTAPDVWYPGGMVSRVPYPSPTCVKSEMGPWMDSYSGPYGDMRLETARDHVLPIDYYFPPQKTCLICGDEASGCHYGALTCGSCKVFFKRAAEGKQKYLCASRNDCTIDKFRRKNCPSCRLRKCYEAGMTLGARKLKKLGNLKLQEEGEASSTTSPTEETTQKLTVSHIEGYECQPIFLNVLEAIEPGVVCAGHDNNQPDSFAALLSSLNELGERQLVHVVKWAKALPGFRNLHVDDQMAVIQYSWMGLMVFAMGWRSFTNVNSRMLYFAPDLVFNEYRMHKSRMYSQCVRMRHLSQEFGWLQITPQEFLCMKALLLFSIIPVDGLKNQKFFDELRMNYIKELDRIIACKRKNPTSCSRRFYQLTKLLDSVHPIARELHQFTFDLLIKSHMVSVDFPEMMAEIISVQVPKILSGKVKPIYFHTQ
Description: AR Antagonist Cell Assay (MMTV-luciferase reporter, DHT-stimulated). The class given is cell-based. To be noted: MDA-MB453-MMTV clone 54-19 cells; antagonism of 100 pM DHT, 17 hr, luciferase readout. In short, it runs like this:
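MDA-MB453 cells stably carrying MMTV-ARE-firefly luciferase, in 1% charcoal-treated serum, preincubated 30 min with compound (10 uM or 1 uM) then stimulated with 100 pM DHT for 17 h at 37° C. Luminescence read; result as % inhibition of DHT fold induction.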
A general note: A reporter such as luciferase makes a cellular process visible.
Broadly, the pIC50 is −log10 of the IC50, conventionally taken in molar units. A low value points to a high IC50. As to `CC(C)CCNS(=O)(=O)c1ccc(Cc2ccc3oc(=O)cc(C(F)(F)F)c3c2)cc1` [Example 159, N-(3-Methylbutyl)-4-(2-oxo-4-trifluoromethyl-2H-chromen-6-ylmethyl)benzenesulfonamide], the pIC50 is less than 5.00. Turning to `O=c1cc(C(F)(F)F)c2cc(Cc3ccc(S(=O)(=O)Nc4cccc5c4CCC5)cc3)ccc2o1` [Example 128, N-Indan-4-yl-4-(2-oxo-4-trifluoromethyl-2H-chromen-6-ylmethyl)benzenesulfonamide], the pIC50 is 5.32. `O=c1cc(C(F)(F)F)c2cc(Cc3ccc(S(=O)(=O)NCCC4=CCCCC4)cc3)ccc2o1` [Example 175, N-(2-Cyclohex-1-enylethyl)-4-(2-oxo-4-trifluoromethyl-2H-chromen-6-ylmethyl)benzenesulfonamide] gave a pIC50 of 5.07. Take `O=c1cc(C(F)(F)F)c2cc(Cc3ccc(S(=O)(=O)Nc4cc5ccccc5cn4)cc3)ccc2[nH]1` [Example 27, N-Isoquinolin-3-yl-4-(2-oxo-4-trifluoromethyl-1,2-dihydroquinolin-6-ylmethyl)-benzenesulfonamide]: the negative logarithm of the IC50 (pIC50) was less than 5.00.

`O=C1CCCN1CCCNS(=O)(=O)c1ccc(Cc2ccc3[nH]c(=O)cc(C(F)(F)F)c3c2)cc1` [Example 68, N-[3-(2-Oxopyrrolidin-1-yl)propyl]-4-(2-oxo-4-trifluoromethyl-1,2-dihydroquinolin-6-ylmethyl)-benzenesulfonamide] gave a negative-log IC50 (pIC50) of 5.12. Next, `CN(CCC#N)S(=O)(=O)c1ccc(Cc2ccc3oc(=O)cc(C(F)(F)F)c3c2)cc1` [Example 108, N-(2-Cyanoethyl)-N-methyl-4-(2-oxo-4-trifluoromethyl-2H-chromen-6-ylmethyl)-benzenesulfonamide]: 5.33.

As for `CN(CCc1ccccn1)S(=O)(=O)c1ccc(Cc2ccc3oc(=O)cc(C(F)(F)F)c3c2)cc1` [Example 111, N-Methyl-4-(2-oxo-4-trifluoromethyl-2H-chromen-6-ylmethyl)-N-(2-pyridin-2-ylethyl)benzenesulfonamide], the pIC50 is 5.32. Consider `O=c1cc(C(F)(F)F)c2cc(Cc3ccc(S(=O)(=O)Nc4cccc(Cc5ccccc5)c4)cc3)ccc2[nH]1` [Example 43, N-(3-Benzylphenyl)-4-(2-oxo-4-trifluoromethyl-1,2-dihydroquinolin-6-ylmethyl)-benzenesulfonamide], for which the pIC50 was less than 5.00.

As to `COc1ccc(N(Cc2ccccc2)S(=O)(=O)c2ccc(Cc3ccc4[nH]c(=O)cc(C(F)(F)F)c4c3)cc2)cc1` [Example 45, N-Benzyl-N-(4-methoxyphenyl)-4-(2-oxo-4-trifluoromethyl-1,2-dihydroquinolin-6-ylmethyl)-benzenesulfonamide], the pIC50 was less than 5.00. Compound `CC(C)(NS(=O)(=O)c1ccc(Cc2ccc3oc(=O)cc(C(F)(F)F)c3c2)cc1)c1ccccc1` [Example 179, N-(1-Methyl-1-phenylethyl)-4-(2-oxo-4-trifluoromethyl-2H-chromen-6-ylmethyl)benzenesulfonamide] had a pIC50 of less than 5.00.

`O=c1cc(C(F)(F)F)c2cc(Cc3ccc(S(=O)(=O)Nc4cccc5cnccc45)cc3)ccc2[nH]1` [Example 31, N-Isoquinolin-5-yl-4-(2-oxo-4-trifluoromethyl-1,2-dihydroquinolin-6-ylmethyl)-benzenesulfonamide] gave a pIC50 of less than 5.00. `COc1cc(NS(=O)(=O)c2ccc(Cc3ccc4[nH]c(=O)cc(C(F)(F)F)c4c3)cc2)cc(OC)c1` [Example 34, N-(3,5-Dimethoxyphenyl)-4-(2-oxo-4-trifluoromethyl-1,2-dihydroquinolin-6-ylmethyl)-benzenesulfonamide]: the negative logarithm of the IC50 (pIC50) is less than 5.00.

The compound `O=c1cc(C(F)(F)F)c2cc(Cc3ccc(S(=O)(=O)NCc4cccnc4)cc3)ccc2o1` [Example 163, 4-(2-Oxo-4-trifluoromethyl-2H-chromen-6-ylmethyl)-N-pyridin-3-ylmethylbenzenesulfonamide] gave a pIC50 of 5.51. `CCCCN(C)S(=O)(=O)c1ccc(Cc2ccc3oc(=O)cc(C(F)(F)F)c3c2)cc1` [Example 107, N-Butyl-N-methyl-4-(2-oxo-4-trifluoromethyl-2H-chromen-6-ylmethyl)benzenesulfonamide] had a pIC50 of 5.46. In the case of `CN1CCC(N(C)S(=O)(=O)c2ccc(Cc3ccc4oc(=O)cc(C(F)(F)F)c4c3)cc2)CC1` [Example 96, N-Methyl-N-(1-methylpipendin-4-yl)-4-(2-oxo-4-trifluoromethyl-2H-chromen-6-ylmethyl)-benzenesulfonamide] it was less than 5.00. Consider `O=c1cc(C(F)(F)F)c2cc(Cc3ccc(S(=O)(=O)Nc4cccc(C(F)(F)F)c4)cc3)ccc2[nH]1` [Example 39, 4-(2-Oxo-4-trifluoromethyl-1,2-dihydroquinolin-6-ylmethyl)-N-(3-trifluoromethylphenyl)-benzenesulfonamide], for which the negative logarithm of the IC50 (pIC50) was less than 5.00. For the compound `O=c1cc(C(F)(F)F)c2cc(Cc3ccc(S(=O)(=O)Nc4ccc(F)cc4)cc3)ccc2o1` [Example 117, N-(4-Fluorophenyl)-4-(2-oxo-4-trifluoromethyl-2H-chromen-6-ylmethyl)benzenesulfonamide], the pIC50 is 5.46. `O=c1cc(C(F)(F)F)c2cc(Cc3ccc(S(=O)(=O)NC4CCN(Cc5ccccc5)C4)cc3)ccc2[nH]1` (stereo not drawn) [Example 86] gave a pIC50 of 5.64. `CCCCN(CC)S(=O)(=O)c1ccc(Cc2ccc3[nH]c(=O)cc(C(F)(F)F)c3c2)cc1` [Example 6] gave a pIC50 of less than 5.00. With `O=c1cc(C(F)(F)F)c2cc(Cc3ccc(S(=O)(=O)NC4CCCC4)cc3)ccc2o1` [Example 158, N-Cyclopentyl-4-(2-oxo-4-trifluoromethyl-2H-chromen-6-ylmethyl)benzenesulfonamide], the negative-log IC50 (pIC50) is 5.19. Take `CN(C1CCCCC1)S(=O)(=O)c1ccc(Cc2ccc3oc(=O)cc(C(F)(F)F)c3c2)cc1` [Example 106, N-Cyclohexyl-N-methyl-4-(2-oxo-4-trifluoromethyl-2H-chromen-6-ylmethyl)-benzenesulfonamide]: the negative logarithm of the IC50 (pIC50) is less than 5.00. As to `O=c1cc(C(F)(F)F)c2cc(Cc3ccc(S(=O)(=O)NCCOc4ccccc4)cc3)ccc2o1` [Example 181, 4-(2-Oxo-4-trifluoromethyl-2H-chromen-6-ylmethyl)-N-(2-phenoxyethyl)-benzenesulfonamide], the pIC50 was 5.16. Next, `O=c1cc(C(F)(F)F)c2cc(Cc3ccc(S(=O)(=O)NCCc4ccccn4)cc3)ccc2[nH]1` [Example 59, 4-(2-Oxo-4-trifluoromethyl-1,2-dihydroquinolin-6-ylmethyl)-N-(2-pyridin-2-ylethyl)-benzenesulfonamide]: 5.03; `O=c1cc(C(F)(F)F)c2cc(Cc3ccc(S(=O)(=O)Nc4cccc5ncccc45)cc3)ccc2[nH]1` [Example 29, 4-(2-Oxo-4-trifluoromethyl-1,2-dihydroquinolin-6-ylmethyl)-N-quinolin-5-ylbenzenesulfonamide]: less than 5.00; `O=c1cc(C(F)(F)F)c2cc(Cc3ccc(S(=O)(=O)Nc4cccc(CO)c4)cc3)ccc2o1` [Example 122, N-(3-Hydroxymethylphenyl)-4-(2-oxo-4-trifluoromethyl-2H-chromen-6-ylmethyl)-benzenesulfonamide]: 5.74. For `Cc1cccc(NS(=O)(=O)c2ccc(Cc3ccc4oc(=O)cc(C(F)(F)F)c4c3)cc2)c1` [Example 115, 4-(2-Oxo-4-trifluoromethyl-2H-chromen-6-ylmethyl)-N-m-tolylbenzenesulfonamide], the negative-log IC50 (pIC50) was 5.69. `O=c1cc(C(F)(F)F)c2cc(Cc3ccc(S(=O)(=O)NCc4c(F)ccc(F)c4Cl)cc3)ccc2o1` [Example 202, N-(2-Chloro-3,6-difluorobenzyl)-4-(2-oxo-4-trifluoromethyl-2H-chromen-6-ylmethyl)benzenesulfonamide]: the pIC50 is 5.35. In the case of `O=c1cc(C(F)(F)F)c2cc(Cc3ccc(S(=O)(=O)Nc4cccc(-c5cnco5)c4)cc3)ccc2o1` [Example 144, N-(3-Oxazol-5-ylphenyl)-4-(2-oxo-4-trifluoromethyl-2H-chromen-6-ylmethyl)-benzenesulfonamide], the negative-log IC50 (pIC50) is 5.66. `O=c1cc(C(F)(F)F)c2cc(Cc3ccc(S(=O)(=O)Nc4cccc5cccnc45)cc3)ccc2[nH]1` [Example 30, 4-(2-Oxo-4-trifluoromethyl-1,2-dihydroquinolin-6-ylmethyl)-N-quinolin-8-ylbenzenesulfonamide] showed a negative-log IC50 (pIC50) of less than 5.00.

For the compound `CC(C)c1ccc(NS(=O)(=O)c2ccc(Cc3ccc4oc(=O)cc(C(F)(F)F)c4c3)cc2)cc1` [Example 130, N-(4-Isopropylphenyl)-4-(2-oxo-4-trifluoromethyl-2H-chromen-6-ylmethyl)-benzenesulfonamide], the pIC50 was 5.41.
